Ki, EC50 and inhibition data for ten compounds are collected here from ChEMBL document CHEMBL5154840, “Development of novel dipeptide nitriles as inhibitors of rhodesain of Trypanosoma brucei rhodesiense” (Eur J Med Chem, 2022).

Calls of active or inactive are those of the source. The rule behind the calls is not given here.

In general, Ki refers to a measure of affinity in units of concentration, obtained from inhibition or displacement. Lower therefore signals a stronger hold on the target. One may read the EC50 as the concentration giving half of the maximal effect. Low values mean higher potency in that assay, high ones lower potency in that assay.

The target in experiment [1] is Rhodesain (Trypanosoma brucei rhodesiense, UniProt Q95PM0). The experiment in a line: Inhibition of full length Trypanosoma brucei rhodesiense rhodesain expressed in pichia pastoris using Cbz-Phe-Arg-AMC as substrate measured for 10 mins by fluorometric enzyme assays.
Chain of Rhodesain (Q95PM0 whole entry): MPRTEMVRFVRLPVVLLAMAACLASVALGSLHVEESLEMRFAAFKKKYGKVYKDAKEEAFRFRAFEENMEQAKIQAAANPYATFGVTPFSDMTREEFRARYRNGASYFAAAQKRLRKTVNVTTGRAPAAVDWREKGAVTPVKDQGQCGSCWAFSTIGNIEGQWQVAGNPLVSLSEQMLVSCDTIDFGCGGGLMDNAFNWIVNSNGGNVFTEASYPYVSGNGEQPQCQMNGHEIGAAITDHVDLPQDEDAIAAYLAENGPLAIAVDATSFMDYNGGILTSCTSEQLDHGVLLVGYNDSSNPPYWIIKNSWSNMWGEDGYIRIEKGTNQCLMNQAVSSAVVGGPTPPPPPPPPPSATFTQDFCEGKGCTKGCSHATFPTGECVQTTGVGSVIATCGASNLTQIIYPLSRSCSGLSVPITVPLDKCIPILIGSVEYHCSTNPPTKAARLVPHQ
Experiment [2] deals with Trypanosoma brucei brucei. The experiment in a line: Antitrypanosomal activity against Trypanosoma brucei brucei measured after 24 hrs by ATPlite assay. It is filed as functional, organism-based. (In general: ATP-based viability assays read luminescence as a measure of living cells.)
Experiment [3] concerns Trypanosoma brucei brucei. The experiment in a line: Antitrypanosomal activity against Trypanosoma brucei brucei measured after 48 hrs by ATPlite assay. The class given is functional, organism-based.
Experiment [4] deals with Rhodesain (Trypanosoma brucei rhodesiense) (UniProt Q95PM0). The experiment in a line: Competitive inhibition of Trypanosoma brucei rhodesiense rhodesain expressed in pichia pastoris using varying concentration of Cbz-Phe-Arg-AMC as substrate by fluorometric enzyme assays.
Chain of Rhodesain (Trypanosoma brucei rhodesiense) (Q95PM0 1-450): as the sequence (Q95PM0 whole entry) above

In experiment [1], `N#C[C@H](CCc1ccccc1)NC(=O)[C@H](Cc1ccccc1)NC(=O)c1ccccc1F` returned a Ki of 0.112 µM. The figures for the EC50 in experiment [2] and in experiment [3] were 10.3 µM and 11.6 µM, respectively.
As for `CC(C)C[C@H](NC(=O)c1cccc(F)c1)C(=O)N[C@H](C#N)CCc1ccccc1`, the Ki in experiment [1] was found to be 0.016 µM. In addition, in experiment [4], the inhibition result was “Active”. Moreover, the concentration for a half-maximal effect (EC50) in experiment [2] was 10.1 µM; in experiment [3], 14.1 µM.
In turn, `CC(C)C[C@H](NC(=O)c1c(F)cccc1F)C(=O)N[C@H](C#N)CCc1ccccc1` showed a Ki in experiment [1] of 0.052 µM. The values for the EC50 in experiment [2] and in experiment [3] were 18.6 µM and 27.1 µM, respectively.
The matching figures for `N#C[C@H](CCc1ccccc1)NC(=O)[C@H](Cc1ccccc1)NC(=O)c1cccc(F)c1`: 0.072 µM, 9.1 µM and 9.4 µM.
The matching figures for `N#C[C@H](CCc1ccccc1)NC(=O)[C@H](Cc1ccccc1)NC(=O)c1c(F)cccc1F`: 0.122 µM, 5.3 µM and 8.8 µM.
With `CC(C)C[C@H](NC(=O)c1ccc(F)cc1)C(=O)N[C@H](C#N)CCc1ccccc1`, in experiment [1], the Ki stood at 0.052 µM. Also, the EC50 in experiment [2] came to 13.3 µM; in experiment [3], 18.7 µM.
In experiment [1], `N#C[C@H](CCc1ccccc1)NC(=O)[C@H](Cc1ccccc1)NC(=O)c1ccc(F)cc1` came in with a Ki of 0.07 µM. In addition, the figures for the EC50 in experiment [2] and in experiment [3] were 10.6 µM and 14.5 µM, respectively.
`CC(C)C[C@H](NC(=O)c1ccc(F)cc1F)C(=O)N[C@H](C#N)CCc1ccccc1` displayed a Ki in experiment [1] of 0.066 µM. Moreover, the figures for the EC50 in experiment [2] and in experiment [3] were 19.3 µM and 22.5 µM, respectively.
As to `N#C[C@H](CCc1ccccc1)NC(=O)[C@H](Cc1ccccc1)NC(=O)c1ccc(F)cc1F`, the EC50 came to 18.7 µM in experiment [2] and 23.4 µM in experiment [3].
As for `CC(C)C[C@H](NC(=O)c1ccccc1F)C(=O)N[C@H](C#N)CCc1ccccc1`, affinity in experiment [1] was put at a Ki of 0.032 µM. Further, the EC50 in experiment [2] was found to be 21.1 µM; in experiment [3], 32 µM.
